Experimental data taken from ChEMBL document CHEMBL3232710, “Pyrroloquinolinone-based dual topoisomerase I/II inhibitor” (2014).
Active and inactive are the calls of the source. The calls are words filed in the database; no cut-off is given here.

Tests used:
HeLa [1] = experiment: Growth inhibition of human HeLa cells after 72 hrs by trypan blue assay; assay type: functional
HL-60 = experiment: Growth inhibition of human HL60 cells after 72 hrs by trypan blue assay; assay type: functional; settings: HL-60, 72 h
A-431 = experiment: Growth inhibition of human A431 cells after 72 hrs by trypan blue assay; assay type: functional; settings: A-431, 72 h
Nucleic Acid = experiment: Binding affinity to salmon testes DNA assessed as intercalation at compound to DNA ratio of 0.04 by linear dichroism analysis; assay type: nucleic-acid assay; settings: Salmonidae
[2] = biological target: DNA topoisomerase 2-alpha (Homo sapiens) (UniProt P11388); experiment: Inhibition of human recombinant topoisomerase 2-alpha-mediated pBR322 DNA relaxation at 50 uM after 60 mins by agarose gel electrophoresis
Chain of DNA topoisomerase 2-alpha (Homo sapiens) (P11388 whole entry, the tested form may be a part): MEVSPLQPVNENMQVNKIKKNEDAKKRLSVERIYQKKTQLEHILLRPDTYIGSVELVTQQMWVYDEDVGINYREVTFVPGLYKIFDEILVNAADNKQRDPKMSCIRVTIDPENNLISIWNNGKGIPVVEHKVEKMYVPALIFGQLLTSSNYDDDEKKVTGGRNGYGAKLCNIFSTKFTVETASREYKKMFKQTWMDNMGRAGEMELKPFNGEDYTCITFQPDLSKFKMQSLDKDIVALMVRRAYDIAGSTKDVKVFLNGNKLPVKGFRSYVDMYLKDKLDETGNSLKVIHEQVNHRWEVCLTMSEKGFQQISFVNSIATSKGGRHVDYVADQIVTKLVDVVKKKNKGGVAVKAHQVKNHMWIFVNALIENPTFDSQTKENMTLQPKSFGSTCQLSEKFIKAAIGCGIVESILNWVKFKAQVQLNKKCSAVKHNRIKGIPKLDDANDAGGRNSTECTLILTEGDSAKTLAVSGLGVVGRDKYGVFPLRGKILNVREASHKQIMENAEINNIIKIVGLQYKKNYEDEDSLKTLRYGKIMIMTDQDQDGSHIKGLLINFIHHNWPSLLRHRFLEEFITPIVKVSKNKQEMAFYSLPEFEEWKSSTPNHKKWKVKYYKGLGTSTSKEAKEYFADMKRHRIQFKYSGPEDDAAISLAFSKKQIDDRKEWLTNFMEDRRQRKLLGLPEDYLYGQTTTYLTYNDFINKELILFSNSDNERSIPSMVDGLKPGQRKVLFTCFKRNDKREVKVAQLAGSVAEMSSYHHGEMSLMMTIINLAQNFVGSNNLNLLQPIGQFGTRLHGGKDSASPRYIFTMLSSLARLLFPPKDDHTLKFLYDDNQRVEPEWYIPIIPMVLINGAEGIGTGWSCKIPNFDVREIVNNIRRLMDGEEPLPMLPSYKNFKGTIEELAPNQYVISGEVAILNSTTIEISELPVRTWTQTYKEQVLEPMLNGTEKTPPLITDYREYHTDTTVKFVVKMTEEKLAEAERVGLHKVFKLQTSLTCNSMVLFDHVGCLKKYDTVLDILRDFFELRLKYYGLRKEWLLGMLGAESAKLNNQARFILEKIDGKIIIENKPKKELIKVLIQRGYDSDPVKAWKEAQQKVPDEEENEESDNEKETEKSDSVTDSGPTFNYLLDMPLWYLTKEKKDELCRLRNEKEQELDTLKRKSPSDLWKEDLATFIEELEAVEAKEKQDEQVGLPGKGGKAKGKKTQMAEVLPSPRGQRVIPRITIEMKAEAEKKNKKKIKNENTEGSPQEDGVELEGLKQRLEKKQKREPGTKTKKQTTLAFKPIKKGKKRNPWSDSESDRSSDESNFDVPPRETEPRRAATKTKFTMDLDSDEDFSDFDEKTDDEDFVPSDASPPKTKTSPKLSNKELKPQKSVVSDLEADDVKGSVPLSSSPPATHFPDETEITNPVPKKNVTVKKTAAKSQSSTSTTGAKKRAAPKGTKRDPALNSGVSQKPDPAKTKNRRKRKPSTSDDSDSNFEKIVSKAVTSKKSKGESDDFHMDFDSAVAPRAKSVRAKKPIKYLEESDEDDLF

[3] = biological target: DNA topoisomerase 2-alpha (Homo sapiens) (UniProt P11388); experiment: Inhibition of human recombinant topoisomerase 2-alpha-mediated pBR322 DNA cleavage at 100 uM after 60 mins by agarose gel electrophoresis
Bos taurus = organism: Bos taurus; experiment: Inhibition of calf thymus topoisomerase-1-mediated pBR322 DNA relaxation after 60 mins by agarose gel electrophoresis
[4] = biological target: DNA topoisomerase 2-alpha (Homo sapiens) (UniProt P11388); experiment: Inhibition of human recombinant topoisomerase 2-alpha-mediated pBR322 DNA relaxation at 20 uM after 60 mins by agarose gel electrophoresis
HeLa [5] = experiment: Induction of apoptosis in human HeLa cells assessed as DNA fragmentation at 100 uM after 24 hrs by agarose gel electrophoresis; assay type: functional, cell-based

Row | Structure (SMILES) | GI50 (HeLa [1]) | GI50 (HL-60) | GI50 (A-431) | Activity (Nucleic Acid) | inhibition [2] | inhibition [3] | inhibition (Bos taurus) | inhibition [4] | Activity (HeLa [5])
1 | Cc1c2ccncc2c(C)c2c1[nH]c1ccccc12 [ELLIPTECINE] | 0.3 µM | 2 µM | 3.2 µM |  |  |  |  |  | 
2 | Cc1cc(=O)n2c(C)cc3c(OCCNCCN(C)C)ccc1c32 | > 50 µM | 25.7 µM | 7.5 µM | Active | Active |  |  |  | 
3 | Cc1cc(=O)n2c(C)cc3c(OCCCCNCCN(C)C)ccc1c32 | 19.7 µM | 8.3 µM | 13.6 µM | Active | Active | Active | Dose-dependent effect | inactive | Active
4 | Cc1cc(=O)n2c(C)cc3c(OCCCCN(C)C)ccc1c32 | > 50 µM | > 50 µM | 41.3 µM | Active | inactive |  |  | inactive | 
5 | Cc1cc(=O)n2c(C)cc3c(OCCCNCCN(C)C)ccc1c32 |  | > 50 µM | 14.5 µM | Active | inactive |  |  |  | 
